In this experiment the test system is CD2F1 mice, L1210 leukemia ip, survival T/C. Kind of experiment: NCI In Vivo Anticancer Drug Screen. Data for tumor model L1210 Leukemia (intraperitoneal) in CD2F1 (CDF1) mice. The following applies: higher = longer survival. The procedure, abridged:
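Ratio T/C, where T is the treated-group value and C the vehicle-dosed control value, from mice implanted with a transplantable tumor.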

Where [1] appears, read: endpoint: mean survival time, dose: 50.0 mg/kg/injection, schedule: Q01DX009 (ip), vehicle: Klucel (hydroxypropylcellulose) (HPC).
[2] abbreviates: endpoint: mean survival time, dose: 100.0 mg/kg/injection, schedule: Q01DX009 (ip), vehicle: Klucel (hydroxypropylcellulose) (HPC).
The mark [3] stands for this setting: endpoint: mean survival time, dose: 200.0 mg/kg/injection, schedule: Q01DX009 (ip), vehicle: Klucel (hydroxypropylcellulose) (HPC).
[4] abbreviates: endpoint: mean survival time, dose: 100.0 mg/kg/injection, schedule: Q04DX003 (ip), vehicle: saline with Tween-80.
Setting [5] is: endpoint: mean survival time, dose: 200.0 mg/kg/injection, schedule: Q04DX003 (ip), vehicle: saline with Tween-80.
Where [6] appears, read: endpoint: mean survival time, dose: 400.0 mg/kg/injection, schedule: Q04DX003 (ip), vehicle: saline with Tween-80.
The mark [7] stands for this setting: endpoint: mean survival time, dose: 100.0 mg/kg/injection, schedule: Q04DX003 (ip), vehicle: Klucel (hydroxypropylcellulose) (HPC).
[8] abbreviates: endpoint: mean survival time, dose: 200.0 mg/kg/injection, schedule: Q04DX003 (ip), vehicle: Klucel (hydroxypropylcellulose) (HPC).
[9] abbreviates: endpoint: mean survival time, dose: 400.0 mg/kg/injection, schedule: Q04DX003 (ip), vehicle: Klucel (hydroxypropylcellulose) (HPC).
The mark [10] stands for this setting: endpoint: mean survival time, dose: 100.0 mg/kg/injection, schedule: Q01DX009 (ip), vehicle: saline with Tween-80.
Setting [11] is: endpoint: mean survival time, dose: 200.0 mg/kg/injection, schedule: Q01DX009 (ip), vehicle: saline with Tween-80.
The mark [12] stands for this setting: endpoint: mean survival time, dose: 25.0 mg/kg/injection, schedule: Q01DX009 (ip), vehicle: saline with Tween-80.

Values joined by “and” are separate entries in the source; they are usually repeats but may differ in a detail not shown here. Equal entries are not always repeated. Toxic doses and inconclusive results are not listed.

Regarding `CN(C)CCCN=C(N)CSP(=O)(O)O`, the T/C runs as follows: (endpoint: mean survival time, dose: 100.0 mg/kg/injection, schedule: Q04DX002 (ip), vehicle: saline) 102 % of control; (endpoint: mean survival time, dose: 200.0 mg/kg/injection, schedule: Q04DX002 (ip), vehicle: saline) 109 % of control.
Turning to `Cn1c(=S)sc2nc3ccccc3n2c1=S`, the T/C (endpoint: median survival time, dose: 15.0 mg/kg/injection, schedule: Q01DX005 (ip), vehicle: saline with Tween-80) is 103 % of control; the T/C (endpoint: median survival time, dose: 30.0 mg/kg/injection, schedule: Q01DX005 (ip), vehicle: saline with Tween-80) is 107 % of control; the T/C (endpoint: median survival time, dose: 60.0 mg/kg/injection, schedule: Q01DX005 (ip), vehicle: saline with Tween-80) is 111 % of control; the T/C (endpoint: median survival time, dose: 120.0 mg/kg/injection, schedule: Q01DX005 (ip), vehicle: saline with Tween-80) is 107 % of control; the T/C (endpoint: median survival time, dose: 240.0 mg/kg/injection, schedule: Q01DX005 (ip), vehicle: saline with Tween-80) was 107 % of control.
For `C=CCN(CC=C)C(=S)Nc1cccc(Br)c1`, the T/C (endpoint: mean survival time, dose: 100.0 mg/kg/injection, schedule: Q01DX009 (ip), vehicle: other) was 96 % of control; the T/C (endpoint: mean survival time, dose: 200.0 mg/kg/injection, schedule: Q01DX009 (ip), vehicle: other) was 95 % of control; the T/C (endpoint: mean survival time, dose: 400.0 mg/kg/injection, schedule: Q01DX009 (ip), vehicle: other) is 101 % of control.
On to `CCC(C)(O)C(C)=O` (stereo not drawn), for which the T/C was 98 % of control (endpoint: mean survival time, dose: 12.5 mg/kg/injection, schedule: Q01DX009 (ip), vehicle: Klucel (hydroxypropylcellulose) (HPC)); 92 % of control (endpoint: mean survival time, dose: 25.0 mg/kg/injection, schedule: Q01DX009 (ip), vehicle: Klucel (hydroxypropylcellulose) (HPC)); 98 % of control under setting [1]; 98 % of control under setting [2]; 105 % of control under setting [3].
With `NS(=O)(=O)C1CCC(Cl)NC1` (stereo not drawn), the T/C runs as follows: under setting [4], 100 % of control; under setting [5], 96 % of control; under setting [6], 102 % of control.
With `[O-][n+]1c2c(cc3ccccc31)Cc1ccccc1-2`, the T/C by setting is: under setting [7], 98 % of control; under setting [8], 96 % of control; under setting [9], 93 % of control.
As to `O=c1cnn(C2OC(CO)C(O)C2O)c(=S)[nH]1` (stereo not drawn), the T/C was 123 % of control under setting [10]; 102 % of control (endpoint: mean survival time, dose: 100.0 mg/kg/injection, schedule: Q04DX003 (ip), vehicle: saline sonified); 107 % of control under setting [11]; 104 % of control (endpoint: mean survival time, dose: 200.0 mg/kg/injection, schedule: Q04DX003 (ip), vehicle: saline sonified); 112 % of control (endpoint: mean survival time, dose: 400.0 mg/kg/injection, schedule: Q01DX009 (ip), vehicle: saline with Tween-80); 96 % of control (endpoint: mean survival time, dose: 400.0 mg/kg/injection, schedule: Q04DX003 (ip), vehicle: saline sonified).
Turning to `CCCCCOc1cc(C(C)=O)cc(OC)c1OC(=O)c1cc([N+](=O)[O-])cc([N+](=O)[O-])c1`, the T/C runs as follows: (endpoint: mean survival time, dose: 100.0 mg/kg/injection, schedule: Q01DX001 (ip), vehicle: saline with Tween-80) 112 % of control; (endpoint: mean survival time, dose: 200.0 mg/kg/injection, schedule: Q01DX001 (ip), vehicle: saline with Tween-80) 90 % of control; (endpoint: mean survival time, dose: 400.0 mg/kg/injection, schedule: Q01DX001 (ip), vehicle: saline with Tween-80) 93 % of control.
As for `CSCCC(NC(=O)COc1ccc(Cl)cc1Cl)C(=O)O` (stereo not drawn), the T/C is 100 % of control under setting [1], 89 % of control under setting [2] and 91 % of control under setting [3].
On to `C/C(=C\Cl)CNC(C)C`, for which the T/C under setting [12] was 101 % of control; the T/C (endpoint: mean survival time, dose: 50.0 mg/kg/injection, schedule: Q01DX009 (ip), vehicle: saline with Tween-80) is 100 % of control; the T/C (endpoint: mean survival time, dose: 100.0 mg/kg/injection, schedule: Q01DX001 (ip), vehicle: acetone) is 98 % of control.
Regarding `CNC(=O)OCc1nc(SC)n(C)c1COC(=O)NC`, the T/C is 103 % of control (endpoint: median survival time, dose: 12.5 mg/kg/injection, schedule: Q01DX005 (ip), vehicle: saline); 111 % of control (endpoint: median survival time, dose: 12.5 mg/kg/injection, schedule: Q01DX005 (ip), vehicle: suspension in saline); 111 % of control (endpoint: median survival time, dose: 25.0 mg/kg/injection, schedule: Q01DX005 (ip), vehicle: saline); 114 % of control (endpoint: median survival time, dose: 25.0 mg/kg/injection, schedule: Q01DX005 (ip), vehicle: suspension in saline); 175 % of control (endpoint: median survival time, dose: 65.0 mg/kg/injection, schedule: Q01DX005 (ip), vehicle: saline); 87 % of control (endpoint: median survival time, dose: 200.0 mg/kg/injection, schedule: Q01DX005 (ip), vehicle: suspension in saline).
In the case of `COc1cc([N+](=O)[O-])ccc1NC(=O)Nc1ccc(Cl)cc1`, the T/C runs as follows: under setting [10], 89 % of control; under setting [4], 91 % of control; under setting [11], 87 % of control; under setting [6], 107 % of control.
For the compound `CCCCCCN=C(N)NC(=O)OC`, the T/C runs as follows: (endpoint: mean survival time, dose: 6.25 mg/kg/injection, schedule: Q01DX009 (ip), vehicle: saline with Tween-80) 87 % of control; (endpoint: mean survival time, dose: 12.5 mg/kg/injection, schedule: Q01DX009 (ip), vehicle: saline with Tween-80) 100 % of control; under setting [12], 100 % of control.
Consider `Nc1cc(C(Br)(Br)Br)nc2ccccc12`, for which the T/C (endpoint: mean survival time, dose: 75.0 mg/kg/injection, schedule: Q01DX001 (ip), vehicle: saline) is 103 % of control.
Consider `O=C(COc1ccccc1)N(/N=C/c1ccccc1)C(=O)c1ccccc1`, for which the T/C reads like this: under setting [2], 96 % of control; under setting [7], 94 % of control; under setting [3], 96 % of control; under setting [8], 92 % of control; (endpoint: mean survival time, dose: 400.0 mg/kg/injection, schedule: Q01DX009 (ip), vehicle: Klucel (hydroxypropylcellulose) (HPC)) 89 % of control; under setting [9], 94 % of control.
On to `COc1ccc(/C=N/N=C/c2ccc(OC)cc2)cc1`, for which the T/C under setting [7] is 104 % of control, the T/C under setting [8] is 100 % of control and the T/C under setting [9] is 114 % of control.
With `O=C(O)c1ccccc1Nc1ccc(Br)cc1`, the T/C was 95 % of control (endpoint: mean survival time, dose: 25.0 mg/kg/injection, schedule: Q04DX003 (ip), vehicle: saline with Tween-80); 104 % of control (endpoint: mean survival time, dose: 50.0 mg/kg/injection, schedule: Q04DX003 (ip), vehicle: saline with Tween-80); 93 % of control and 112 % of control under setting [4]; 98 % of control under setting [5].
With `O=C(C=C(C(F)(F)F)C(F)(F)F)c1ccccc1[N+](=O)[O-]`, the T/C was 103 % of control (endpoint: mean survival time, dose: 12.5 mg/kg/injection, schedule: Q04DX003 (ip), vehicle: other) and 109 % of control (endpoint: mean survival time, dose: 25.0 mg/kg/injection, schedule: Q04DX003 (ip), vehicle: other).
As for `[Cl][Pt+2][Cl].[NH-]Cc1ccccc1C[NH-]`, the T/C runs as follows: (endpoint: mean survival time, dose: 3.13 mg/kg/injection, schedule: Q04DX003 (ip), vehicle: dextrose) 114 % of control; (endpoint: mean survival time, dose: 6.25 mg/kg/injection, schedule: Q04DX003 (ip), vehicle: dextrose) 116 % of control; (endpoint: mean survival time, dose: 12.5 mg/kg/injection, schedule: Q04DX003 (ip), vehicle: dextrose) 124 % of control; (endpoint: mean survival time, dose: 25.0 mg/kg/injection, schedule: Q04DX003 (ip), vehicle: dextrose) 114 % of control; (endpoint: mean survival time, dose: 50.0 mg/kg/injection, schedule: Q04DX003 (ip), vehicle: dextrose) 86 % of control.
As to `N/N=C(\N)c1ccc2ccc3cccnc3c2n1`, the T/C was 89 % of control (endpoint: mean survival time, dose: 100.0 mg/kg/injection, schedule: Q04DX003 (ip), vehicle: saline); 104 % of control (endpoint: mean survival time, dose: 200.0 mg/kg/injection, schedule: Q04DX003 (ip), vehicle: saline); 108 % of control (endpoint: mean survival time, dose: 400.0 mg/kg/injection, schedule: Q04DX003 (ip), vehicle: saline).
In the case of `CC(=O)O/C=C/C=C/C=N/c1nc2c(c(=O)n(C)c(=O)n2C)n1C`, the T/C is 105 % of control (endpoint: mean survival time, dose: 12.5 mg/kg/injection, schedule: Q01DX005 (ip), vehicle: distilled water + Tween-80); 91 % of control (endpoint: mean survival time, dose: 25.0 mg/kg/injection, schedule: Q01DX005 (ip), vehicle: distilled water + Tween-80); 94 % of control (endpoint: mean survival time, dose: 50.0 mg/kg/injection, schedule: Q01DX005 (ip), vehicle: distilled water + Tween-80); 103 % of control (endpoint: mean survival time, dose: 100.0 mg/kg/injection, schedule: Q01DX005 (ip), vehicle: distilled water + Tween-80); 97 % of control (endpoint: mean survival time, dose: 200.0 mg/kg/injection, schedule: Q01DX005 (ip), vehicle: distilled water + Tween-80).

Values taken from PubChem BioAssay AID256 (DTP/NCI, 2004).
